# From patent US20100311718A1, “Treatment of Psychoses with Dibenzothiazepine Antipsychotic” (AstraZeneca AB, priority 2004, published 2010)
# Where a name gives a salt, the structure may show the parent alone. Read-outs that look alike come from different tables or passages of the source. Marks after values point to notes of the source that are not given here.
# Tests used:
# [1] = system: patients with bipolar depression; conditions: monotherapeutic agent; cited from earlier work
# [2] = system: patients with bipolar depression; conditions: 8 week trial; difference not statistically significant; cited from earlier work
# [3] = system: patients with bipolar depression
# Source text: (§1) The treatment was with quetiapine or placebo. There were 43% male and 57% female patients. The demographics also included 67% bipolar I and 33% bipolar II.
# [4] = system: patients with bipolar depression; conditions: both doses, p<0.001
# [5] = system: patients with bipolar depression; remark: listed apart in the source
# Source text: Criteria for Emergent Mania (any one of the following): AE (Adverse Event) or SAE
# (Serious Adverse Event) of Mania. Withdrawal for AE of mania. YMRS (Young Mania Rating Scale) ≧16 on 2 consecutive or final assessment.
# [6] = system: patients with bipolar depression; conditions: for Change in MADRS, Mean (SD): Bipolar I
# Source text: as §1
# [7] = system: patients with bipolar depression; remark: listed apart in the source
# Source text: as §1
# [8] = system: patients with bipolar depression; remark: listed apart in the source
# Source text: as §1
# [9] = system: patients with bipolar depression; remark: listed apart in the source
# Source text: as §1
# [10] = system: patients with bipolar depression; conditions: for Improvement in mean HAM-A score: endpoint (Week 8), P<0.05 vs placebo
# Source text: as §1
# [11] = system: patients with bipolar depression; conditions: 7-week trial, patients who completed the study; cited from earlier work
# [12] = treatment of bipolar depression
# [13] = OC (completer) population, 300 mg/day
# [14] = OC (completer) population, 600 mg/day
smiles,measurement,setting,value
O=C([O-])[O-].[Li+].[Li+] [Lithium carbonate],Patients with bipolar depression in whom monotherapy is effective,[1],approximately 50%
CCCC(CCC)C(=O)O [divalproex],Percentage of patients with a 50% reduction in HAM-D scores without mania,[2],numerical improvement over placebo
"OCCOCCN1CCN(C2=Nc3ccccc3Sc3ccccc32)CC1 [quetiapine, 2-[2-(4-dibenzo [b,f] 1,4]thiazepin-11-yl-1-piperazinyl)ethoxy]-ethanol fumarate]","Q-LES-Q change (Δ), Mean (SD)","[3]; Week 4, 300 mg",8.6 (9.6)^a
same,"Q-LES-Q change (Δ), Mean (SD)","[3]; Week 4, 600 mg",11.0 (10.7)*
same,"Q-LES-Q change (Δ), Mean (SD)","[3]; Week 8, 300 mg",11.7 (10.4)^a
same,"Q-LES-Q change (Δ), Mean (SD)","[3]; Week 8, 600 mg",16.3 (10.3)*
same,"Q-LES-Q change (Δ), Mean (SD)","[3]; Week 8 LOCF, 600 mg",12.2 (11.6)*
same,Clinical Improvement (CGI),[4],Clinical Improvement (CGI) in both doses from Day 8 on
same,"Treatment-emergent mania, number of patients",[5]; 300 mg,6
same,"Treatment-emergent mania, percent of patients",[5]; 300 mg,3.5%
same,"Treatment-emergent mania, number of patients",[5]; 600 mg,4
same,"Treatment-emergent mania, percent of patients",[5]; 600 mg,2.4%
same,Association with treatment-emergent mania (switching),[5]; [12],not associated with treatment-emergent mania
same,MADRS effect size,[6]; Bipolar I & II,0.6
same,"Change in MADRS, Mean (SD)","[6]; ITT population, 300 mg/day",−17.1 (9.7)
same,"Change in MADRS, Mean (SD)","[6]; ITT population, 600 mg/day",−18.2 (11.0)
same,MADRS Change,"[6]; ITT population, 300 mg/day",−16.5
same,MADRS Change,"[6]; ITT population, 600 mg/day",−16.8
same,MADRS Change,[6]; [13],−18.6
same,MADRS Change,[6]; [14],−20.3
same,Efficacy against depressive symptoms (MADRS and HAM-D),"[6]; both doses, p<0.001",Efficacy against depressive symptoms in both doses from Day 8 on
same,"Advantage over placebo, MADRS Responder analysis",[6]; in vivo,20%
same,"Advantage over placebo, remission analysis",[6]; in vivo,20%
same,Adverse event trends,[7]; in vivo,No unexpected AE trends
same,Changes in weight,[7]; in vivo,Small dose related changes in weight
same,Tolerability,[7]; [12],"well-tolerated in the treatment of bipolar depression with a low incidence of EPS (extrapyramidal symptoms), prolactin, sexual dysfunction and weight gain"
same,"PSQI change (Δ), Mean (SD)","[8]; Week 4, 300 mg",−4.7 (4.2)*
same,"PSQI change (Δ), Mean (SD)","[8]; Week 4, 600 mg",−5.3 (4.9)*
same,"PSQI change (Δ), Mean (SD)","[8]; Week 8, 300 mg",−5.3 (4.3)*
same,"PSQI change (Δ), Mean (SD)","[8]; Week 8, 600 mg",−6.4 (4.3)*
same,"PSQI change (Δ), Mean (SD)","[8]; Week 8 LOCF, 300 mg",−5.1 (4.3)*
same,"Sleep component: Sleep disturbance, Mean (SD)","[8]; Week 8 LOCF, 300 mg",1.1 (0.6)
same,"Sleep component: Sleep duration, Mean (SD)","[8]; Week 8 LOCF, 300 mg",0.7 (0.8)
same,"Sleep component: Sleep dysfunction, Mean (SD)","[8]; Week 8 LOCF, 300 mg",1.3 (0.9)
same,"Sleep component: Sleep latency, Mean (SD)","[8]; Week 8 LOCF, 300 mg",1.3 (1.0)
same,"Sleep component: Sleep medication, Mean (SD)","[8]; Week 8 LOCF, 300 mg",0.4 (0.9)
same,"Sleep component: Sleep quality, Mean (SD)","[8]; Week 8 LOCF, 300 mg",1.0 (0.8)
same,"PSQI change (Δ), Mean (SD)","[8]; Week 8 LOCF, 600 mg",−5.5 (4.8)*
same,"Sleep component: Sleep disturbance, Mean (SD)","[8]; Week 8 LOCF, 600 mg",1.2 (0.7)
same,"Sleep component: Sleep duration, Mean (SD)","[8]; Week 8 LOCF, 600 mg",0.5 (0.8)
same,"Sleep component: Sleep dysfunction, Mean (SD)","[8]; Week 8 LOCF, 600 mg",1.4 (0.9)
same,"Sleep component: Sleep latency, Mean (SD)","[8]; Week 8 LOCF, 600 mg",1.3 (1.1)
same,"Sleep component: Sleep medication, Mean (SD)","[8]; Week 8 LOCF, 600 mg",0.4 (0.9)
same,"Sleep component: Sleep quality, Mean (SD)","[8]; Week 8 LOCF, 600 mg",0.8 (0.8)
same,HAM-D Change,"[9]; ITT population, 300 mg/day",−13.4
same,HAM-D Change,"[9]; ITT population, 600 mg/day",−13.9
same,HAM-D Change,[9]; [13],−15.0
same,HAM-D Change,[9]; [14],−17.0
same,Improvement in mean HAM-A score,[10]; about 300 mg/day,−8.6
same,Improvement in mean HAM-A score,[10]; about 600 mg/day,−8.7
same,Efficacy in anxiety symptoms (HAM-A),"[10]; both doses, p<0.01",Efficacy in anxiety symptoms (HAM-A) in both doses from Day 8 on
Nc1nnc(-c2cccc(Cl)c2Cl)c(N)n1 [lamotrigine],HAM-D and MADRS scores,[11],produced improvement in HAM-D and MADRS scores
